From PubChem BioAssay (NCI)
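The compound was tested at five concentrations on cells cultured in 96-well plates, with a 48-hour exposure period. TGI is the concentration that stops growth completely.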 The source made the active and inactive calls. Cut-off read from the data, not from the text of the source: active = GI50 below about 0.43 µM; inactive = the rest.

Tests used:
Assay in all cases: growth of human tumour cells (NCI), 48 h
[1] = system: 786-0 renal
[2] = system: A498 renal
[3] = system: A549 NSCLC
[4] = system: ACHN renal
[5] = system: BT-549 breast
[6] = system: CAKI-1 renal
[7] = system: CCRF-CEM leukemia
[8] = system: COLO 205 colon
[9] = system: DU-145 prostate
[10] = system: HCC-2998 colon
[11] = system: HCT-116 colon
[12] = system: HL-60(TB) leukemia
[13] = system: HOP-62 NSCLC
[14] = system: HOP-92 NSCLC
[15] = system: HS 578T breast
[16] = system: HT29 colon
[17] = system: IGROV1 ovarian
[18] = system: K-562 leukemia
[19] = system: KM12 colon
[20] = system: LOX IMVI melanoma
[21] = system: M14 melanoma
[22] = system: MALME-3M melanoma
[23] = system: MCF7 breast
[24] = system: MDA-MB-231 breast
[25] = system: MDA-MB-435
[26] = system: MDA-N
[27] = system: MOLT-4 leukemia
[28] = system: NCI-H23 lung
[29] = system: NCI-H460 lung
[30] = system: OVCAR-3 ovarian
[31] = system: OVCAR-4 ovarian
[32] = system: OVCAR-5 ovarian
[33] = system: PC-3 prostate
[34] = system: RPMI-8226 leukemia
[35] = system: RXF 393 renal
[36] = system: SF-268 CNS
[37] = system: SF-295 CNS
[38] = system: SF-539 CNS
[39] = system: SK-MEL-28 melanoma
[40] = system: SK-MEL-5 melanoma
[41] = system: SK-OV-3 ovarian
[42] = system: SN12C renal
[43] = system: SNB-19 CNS
[44] = system: SNB-75 CNS
[45] = system: SR leukemia
[46] = system: SW-620 colon
[47] = system: T-47D breast
[48] = system: TK-10 renal
[49] = system: U251 CNS
[50] = system: UACC-257 melanoma
[51] = system: UACC-62 melanoma
[52] = system: UO-31 renal
[53] = system: EKVX NSCLC
[54] = system: HCT-15 colon
[55] = system: NCI-H226 lung
[56] = system: NCI-H522 lung
[57] = system: OVCAR-8 ovarian
[58] = system: SK-MEL-2 melanoma
[59] = system: NCI/ADR-RES ovarian

SMILES: [N-]=[N+]=NC1=CC(=O)c2cccc3cccc1c23
- TGI [1]: > 100 µM
- TGI [2]: 38.9 µM
- TGI [3]: > 100 µM
- TGI [4]: > 100 µM
- TGI [5]: 63 µM
- TGI [6]: > 100 µM
- TGI [7]: > 100 µM
- TGI [8]: > 100 µM
- TGI [9]: > 100 µM
- TGI [10]: > 100 µM
- TGI [11]: > 100 µM
- TGI [12]: > 100 µM
- TGI [13]: 48.1 µM
- TGI [14]: 66.7 µM
- TGI [15]: 69.8 µM
- TGI [16]: > 100 µM
- TGI [17]: 51.8 µM
- TGI [18]: > 100 µM
- TGI [19]: > 100 µM
- TGI [20]: > 100 µM
- TGI [21]: 82.8 µM
- TGI [22]: > 100 µM
- TGI [23]: > 100 µM
- TGI [24]: > 100 µM
- TGI [25]: > 100 µM
- TGI [26]: > 100 µM
- TGI [27]: > 100 µM
- TGI [28]: 82 µM
- TGI [29]: > 100 µM
- TGI [30]: > 100 µM
- TGI [31]: > 100 µM
- TGI [32]: > 100 µM
- TGI [33]: > 100 µM
- TGI [34]: > 100 µM
- TGI [35]: 34.5 µM
- TGI [36]: > 100 µM
- TGI [37]: 84.3 µM
- TGI [38]: 88 µM
- TGI [39]: > 100 µM
- TGI [40]: 27.8 µM
- TGI [41]: 35.6 µM
- TGI [42]: > 100 µM
- TGI [43]: > 100 µM
- TGI [44]: 31 µM
- TGI [45]: > 100 µM
- TGI [46]: > 100 µM
- TGI [47]: > 100 µM
- TGI [48]: 88.2 µM
- TGI [49]: 71 µM
- TGI [50]: 72.2 µM
- TGI [51]: 42.1 µM
- TGI [52]: > 100 µM

SMILES: C[C@H](N)C(O)C/C=C\C/C=C\C/C=C\C/C=C\C/C=C\C/C=C\CCCCCCC(O)[C@H](C)N (some centres undefined)
- outcome [1]: inactive
- outcome [2]: inactive
- outcome [4]: inactive
- outcome [5]: inactive
- outcome [6]: inactive
- outcome [7]: inactive
- outcome [8]: inactive
- outcome [9]: inactive
- outcome [53]: inactive
- outcome [10]: inactive
- outcome [11]: inactive
- outcome [54]: inactive
- outcome [12]: inactive
- outcome [13]: inactive
- outcome [15]: inactive
- outcome [16]: inactive
- outcome [18]: inactive
- outcome [19]: inactive
- outcome [20]: inactive
- outcome [21]: inactive
- outcome [22]: inactive
- outcome [23]: inactive
- outcome [24]: inactive
- outcome [25]: inactive
- outcome [26]: inactive
- outcome [27]: inactive
- outcome [55]: inactive
- outcome [28]: inactive
- outcome [29]: inactive
- outcome [56]: inactive
- outcome [30]: inactive
- outcome [31]: inactive
- outcome [32]: inactive
- outcome [57]: inactive
- outcome [33]: inactive
- outcome [34]: inactive
- outcome [35]: inactive
- outcome [36]: inactive
- outcome [37]: inactive
- outcome [38]: inactive
- outcome [58]: inactive
- outcome [39]: inactive
- outcome [41]: inactive
- outcome [42]: inactive
- outcome [43]: inactive
- outcome [44]: inactive
- outcome [45]: inactive
- outcome [46]: inactive
- outcome [47]: inactive
- outcome [48]: inactive
- outcome [49]: inactive
- outcome [50]: inactive
- outcome [51]: inactive
- outcome [52]: inactive

SMILES: CN1CCN(C(=S)N(C(=O)c2cccs2)c2ccccc2)CC1
- TGI [1]: > 100 µM
- TGI [3]: > 100 µM
- TGI [4]: > 100 µM
- TGI [5]: > 100 µM
- TGI [7]: > 100 µM
- TGI [8]: > 100 µM
- TGI [9]: > 100 µM
- TGI [10]: > 100 µM
- TGI [54]: > 100 µM
- TGI [12]: > 100 µM
- TGI [14]: > 100 µM
- TGI [15]: > 100 µM
- TGI [16]: > 100 µM
- TGI [17]: > 100 µM
- TGI [18]: > 100 µM
- TGI [19]: > 100 µM
- TGI [20]: > 100 µM
- TGI [21]: > 100 µM
- TGI [22]: > 100 µM
- TGI [23]: > 100 µM
- TGI [24]: > 100 µM
- TGI [25]: > 100 µM
- TGI [26]: > 100 µM
- TGI [27]: > 100 µM
- TGI [55]: > 100 µM
- TGI [28]: > 100 µM
- TGI [29]: > 100 µM
- TGI [56]: > 100 µM
- TGI [30]: > 100 µM
- TGI [31]: > 100 µM
- TGI [32]: > 100 µM
- TGI [57]: > 100 µM
- TGI [34]: > 100 µM
- TGI [35]: > 100 µM
- TGI [36]: > 100 µM
- TGI [58]: > 100 µM
- TGI [39]: > 100 µM
- TGI [40]: > 100 µM
- TGI [42]: > 100 µM
- TGI [43]: > 100 µM
- TGI [44]: > 100 µM
- TGI [45]: > 100 µM
- TGI [46]: > 100 µM
- TGI [47]: > 100 µM
- TGI [48]: > 100 µM
- TGI [49]: > 100 µM
- TGI [50]: > 100 µM
- TGI [51]: > 100 µM
- TGI [52]: > 100 µM

SMILES: C=C(C)C[C@H](Sc1nc2ccccc2s1)[C@H](C)O
- TGI [1]: > 100 µM
- TGI [2]: 79 µM
- TGI [3]: > 100 µM
- TGI [4]: > 100 µM
- TGI [5]: > 100 µM
- TGI [6]: > 100 µM
- TGI [8]: > 100 µM
- TGI [9]: > 100 µM
- TGI [53]: > 100 µM
- TGI [10]: > 100 µM
- TGI [11]: > 100 µM
- TGI [54]: > 100 µM
- TGI [12]: 44.9 µM
- TGI [13]: > 100 µM
- TGI [14]: > 100 µM
- TGI [15]: > 100 µM
- TGI [16]: > 100 µM
- TGI [17]: > 100 µM
- TGI [18]: > 100 µM
- TGI [19]: > 100 µM
- TGI [20]: > 100 µM
- TGI [21]: > 100 µM
- TGI [22]: 72 µM
- TGI [23]: > 100 µM
- TGI [24]: > 100 µM
- TGI [25]: > 100 µM
- TGI [26]: > 100 µM
- TGI [27]: 43 µM
- TGI [55]: 74.1 µM
- TGI [28]: > 100 µM
- TGI [29]: > 100 µM
- TGI [56]: 81.9 µM
- TGI [59]: > 100 µM
- TGI [30]: 75.7 µM
- TGI [31]: > 100 µM
- TGI [32]: > 100 µM
- TGI [57]: > 100 µM
- TGI [33]: 63.8 µM
- TGI [34]: 98.4 µM
- TGI [35]: > 100 µM
- TGI [36]: > 100 µM
- TGI [37]: > 100 µM
- TGI [38]: > 100 µM
- TGI [58]: 69.9 µM
- TGI [39]: > 100 µM
- TGI [40]: 36.8 µM
- TGI [42]: > 100 µM
- TGI [43]: > 100 µM
- TGI [45]: > 100 µM
- TGI [46]: > 100 µM
- TGI [48]: > 100 µM
- TGI [49]: > 100 µM
- TGI [50]: > 100 µM
- TGI [51]: > 100 µM
- TGI [52]: > 100 µM

SMILES: Cc1nn(C(=O)Cc2ccccc2)c2c1C(c1ccc3ccccc3c1O)SC(N)=N2 (centres undefined)
- TGI [2]: > 100 µM
- TGI [3]: > 100 µM
- TGI [4]: > 100 µM
- TGI [5]: > 100 µM
- TGI [6]: > 100 µM
- TGI [7]: 64.2 µM
- TGI [8]: > 100 µM
- TGI [9]: > 100 µM
- TGI [53]: > 100 µM
- TGI [10]: > 100 µM
- TGI [11]: > 100 µM
- TGI [54]: > 100 µM
- TGI [12]: > 100 µM
- TGI [13]: > 100 µM
- TGI [15]: > 100 µM
- TGI [16]: > 100 µM
- TGI [17]: > 100 µM
- TGI [18]: > 100 µM
- TGI [19]: > 100 µM
- TGI [20]: > 100 µM
- TGI [21]: > 100 µM
- TGI [23]: > 100 µM
- TGI [24]: > 100 µM
- TGI [25]: > 100 µM
- TGI [26]: > 100 µM
- TGI [27]: > 100 µM
- TGI [55]: > 100 µM
- TGI [28]: > 100 µM
- TGI [29]: > 100 µM
- TGI [56]: > 100 µM
- TGI [57]: > 100 µM
- TGI [33]: > 100 µM
- TGI [34]: > 100 µM
- TGI [36]: > 100 µM
- TGI [37]: > 100 µM
- TGI [38]: > 100 µM
- TGI [39]: > 100 µM
- TGI [40]: > 100 µM
- TGI [41]: > 100 µM
- TGI [42]: > 100 µM
- TGI [43]: > 100 µM
- TGI [44]: > 100 µM
- TGI [45]: > 100 µM
- TGI [46]: > 100 µM
- TGI [47]: > 100 µM
- TGI [48]: > 100 µM
- TGI [50]: > 100 µM
- TGI [51]: > 100 µM
- TGI [52]: > 100 µM
